# Like-named read-outs stand apart in the source and are kept apart here.
# Target: T1, PRMT5/MEP50 (Homo sapiens, UniProt O14744)
# T1 construct: Expressed full-length human Flag-PRMT5/6His-MeP50 protein complex was purified; made in house; host or cells: Spodoptera frugiperda (SF9) insect cells, baculovirus (pDEST8)
# Test: PRMT5 Biochemical Assay (PRMT5/MEP50 enzyme assay on peptide substrate, 3H-SAM Flashplate)
# Settings: read-out: Biochemical IC50
# Excerpt: S-adenosylmethionine (SAM), S-adenosylhomocysteine (SAH), bicine, KCl, Tween20, dimethylsulfoxide (DMSO), bovine skin gelatin (BSG), and Tris(2-carboxyethyl)phosphine hydrochloride solution (TCEP) were purchased from Sigma-Aldrich at the highest level of purity possible. ^3H-SAM was purchase from American Radiolabeled Chemicals with a specific activity of 80 Ci/mmol 384-well streptavidin Flashplates were purchased from PerkinElmer.
# Peptide representative of human histone H4 residues 1-15 was synthesized with a C-terminal linker-affinity tag motif and a C-terminal amide cap by 21st Century Biochemicals. […] The sequence was Ac-[…][K-Biot]-amide (SEQ ID NO.:3).
# Full-length human MEP50 (NM_024102) clone was amplified from a human testis cDNA library incorporating a 5′ sequence encoding a 6-histidine tag (MHHHHHH) (SEQ ID NO.:5) fused directly to Arg 2 of MEP50. The amplified genes were sublconed into pENTR/D/TEV (Life Technologies) and subsequently transferred by Gateway™ attL×attR recombination to pDEST8 baculvirus expression vector (Life Technologies).
# Recombinant baculovirus and Baculovirus-Infected Insect Cells (BIIC) were generated according to Bac-to-Bac kit instructions (Life Technologies) and Wasilko, 2006, respectively. Protein over-expression was accomplished by infecting exponentially growing Spodoptera frugiperda (SF9) cell culture at 1.2×10^6 cell/ml with a 5000 fold dilution of BIIC stock. Infections were carried out at 27° C. for 72 hours, harvested by centrifugation, and stored at −80° C. for purification.
# Flag-PRMT5/6His-MeP50 was eluted with 300 mM Imidazole in the same buffer. […] Reference: Wasilko, D. J. and S. E. Lee: “TIPS: titerless infected-cells preservation and scale-up” Bioprocess J., 5 (2006), pp. 29-32.
# General Procedure for PRMT5/MEP50 Enzyme Assays on Peptide Substrates.
# The assays were all performed in a buffer consisting of 20 mM Bicine (pH=7.6), 1 mM TCEP, 0.005% BSG, and 0.002% Tween20, prepared on the day of use. Compounds in 100% DMSO (1 ul) were spotted into a polypropylene 384-well V-bottom plates (Greiner) using a Platemate Plus outfitted with a 384-channel head (Thermo Scientific). DMSO (1 ul) was added to Columns 11, 12, 23, 24, rows A-H for the maximum signal control and 1 ul of SAH, a known product and inhibitor of PRMT5/MEP50, was added to columns 11, 12, 23, 24, rows I-P for the minimum signal control. A cocktail (40 ul) containing the PRMT5/MEP50 enzyme and the peptide was added by Multidrop Combi (Thermo-Fisher). The compounds were allowed to incubate with PRMT5/MEP50 for 30 min at 25 degrees Celsius, then a cocktail (10 ul) containing ^3H-SAM was added to initiate the reaction (final volume=51 ul). The final concentrations of the components were as follows: PRMT5/MEP50 was 4 nM, ^3H-SAM was 75 nM, peptide was 40 nM, SAH in the minimum signal control wells was 100 uM, and the DMSO concentration was 1%. The assays were stopped by the addition of non-radioactive SAM (10 ul) to a final concentration of 600 uM, which dilutes the ^3H-SAM to a level where its incorporation into the peptide substrate is no longer detectable. 50 ul of the reaction in the 384-well polypropylene plate was then transferred to a 384-well Flashplate and the biotinylated peptides were allowed to bind to the streptavidin surface for at least 1 hour before being washed three times with 0.1% Tween20 in a Biotek ELx405 plate washer. The plates were then read in a PerkinElmer TopCount plate reader to measure the quantity of ^3H-labeled peptide bound to the Flashplate surface, measured as disintegrations per minute (dpm) or alternatively, referred to as counts per minute (cpm).
# where dpm=disintegrations per minute, cmpd=signal in assay well, and min and max are the respective minimum and maximum signal controls.
# where top and bottom are the normally allowed to float, but may be fixed at 100 or 0 respectively in a 3-parameter fit.
# [1] = Table B-2, PRMT5/MEP50 4 nM, 3H-SAM 75 nM, peptide 40 nM
# [2] = PRMT5 biochemical assay, Table C-2
# T1 sequence (O14744 with tags, fused parts or gaps): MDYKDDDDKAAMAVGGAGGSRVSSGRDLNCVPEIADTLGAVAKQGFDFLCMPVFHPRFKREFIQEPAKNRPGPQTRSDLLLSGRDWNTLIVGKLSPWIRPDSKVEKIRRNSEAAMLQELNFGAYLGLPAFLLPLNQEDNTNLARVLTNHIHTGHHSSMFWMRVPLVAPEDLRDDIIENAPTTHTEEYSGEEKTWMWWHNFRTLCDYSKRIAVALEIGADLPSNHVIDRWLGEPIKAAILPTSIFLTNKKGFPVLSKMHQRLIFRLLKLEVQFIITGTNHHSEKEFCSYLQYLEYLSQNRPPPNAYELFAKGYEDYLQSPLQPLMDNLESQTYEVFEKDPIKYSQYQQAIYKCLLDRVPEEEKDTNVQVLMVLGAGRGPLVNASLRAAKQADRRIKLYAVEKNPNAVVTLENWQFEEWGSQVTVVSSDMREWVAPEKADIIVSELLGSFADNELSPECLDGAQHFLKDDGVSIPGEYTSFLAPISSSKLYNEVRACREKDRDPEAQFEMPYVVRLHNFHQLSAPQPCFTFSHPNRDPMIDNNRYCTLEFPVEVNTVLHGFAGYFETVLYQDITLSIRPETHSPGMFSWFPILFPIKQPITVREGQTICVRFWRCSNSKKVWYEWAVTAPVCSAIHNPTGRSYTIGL
# T1 sequence (Q9BQA1 with tags, fused parts or gaps partner limits assumed): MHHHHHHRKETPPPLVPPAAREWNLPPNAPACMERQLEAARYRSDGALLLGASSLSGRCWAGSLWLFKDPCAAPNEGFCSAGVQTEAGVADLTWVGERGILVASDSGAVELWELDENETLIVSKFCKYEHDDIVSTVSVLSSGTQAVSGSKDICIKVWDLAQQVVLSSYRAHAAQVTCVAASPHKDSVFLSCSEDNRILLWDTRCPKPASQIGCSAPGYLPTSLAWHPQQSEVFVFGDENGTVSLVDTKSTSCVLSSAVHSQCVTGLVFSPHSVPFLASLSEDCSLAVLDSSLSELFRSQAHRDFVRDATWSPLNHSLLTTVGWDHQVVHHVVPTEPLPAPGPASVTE
Structure (SMILES),IC50 [1] [µM],IC50 [2] [µM],other results
O=C(NCC(O)CN1CCc2ccccc2C1)c1cccc(CN2CCNCC2)c1 (stereo not shown) [Compound B29.],< 0.1,–,–
CN1CCN(Cc2cccc(C(=O)NCC(O)CN3CCc4ccccc4C3)c2)CC1 (stereo not shown) [Compound B30.],< 0.1,–,–
CS(=O)(=O)Nc1ccc(C(=O)NCC(O)CN2CCc3ccccc3C2)cc1 (stereo not shown) [Compound B31.],0.101 to 1,–,–
NS(=O)(=O)c1cccc(C(=O)NCC(O)CN2CCc3ccccc3C2)c1 (stereo not shown) [Compound B32.],0.101 to 1,–,–
NS(=O)(=O)c1ccccc1C(=O)NCC(O)CN1CCc2ccccc2C1 (stereo not shown) [Compound B33.],1 to 10,–,–
CN1CCCC1c1cccc(C(=O)NCC(O)CN2CCc3ccccc3C2)c1 (stereo not shown) [Compound B34.],< 0.1,–,–
O=C(NCC(O)CN1CCc2ccccc2C1)c1cccc(N2CCNCC2)c1 (stereo not shown) [Compound B35.],< 0.1,–,–
CN1CCN(c2cccc(C(=O)NCC(O)CN3CCc4ccccc4C3)c2)CC1 (stereo not shown) [Compound B36.],< 0.1,–,–
O=C(NCC(O)CN1CCc2ccccc2C1)c1cccc(C2CCNC2)c1 (stereo not shown) [Compound B37.],< 0.1,–,–
CN1CCC(c2cccc(C(=O)NCC(O)CN3CCc4ccccc4C3)c2)C1 (stereo not shown) [Compound B38.],< 0.1,–,–
CNCCOc1cccc(C(=O)NCC(O)CN2CCc3ccccc3C2)c1 (stereo not shown) [Compound B39.],0.101 to 1,–,–
Cc1c(NC2CCOCC2)cccc1C(=O)NCC(O)CN1CCc2ccccc2C1 (stereo not shown) [Compound B40.],< 0.1,–,–
CCN(c1cccc(C(=O)NCC(O)CN2CCc3ccccc3C2)c1C)C1CCOCC1 (stereo not shown) [Compound B41.],< 0.1,–,–
O=C(NCC(O)CN1CCc2ccccc2C1)c1cccc(C2CCCN2)c1 (stereo not shown) [Compound B42.],0.101 to 1,–,–
O=C(NC[C@@H](O)CN1CCc2ccccc2C1)c1cccc(NC2CCOCC2)c1 [Compound B43.],0.101 to 1,–,–
O=C(NC[C@H](O)CN1CCc2ccccc2C1)c1cccc(NC2CCOCC2)c1 [Compound B44.],< 0.1,–,–
O=C(NCC(O)CN1CCc2ccccc2C1)c1cccc(NC2CCOC2)c1 (stereo not shown) [Compound B45.],< 0.1,–,–
O=C(NCC(O)CN1CCc2ccccc2C1)c1cccc(C(=O)N2CCOCC2)c1 (stereo not shown) [Compound B46.],1 to 10,–,–

Structure (SMILES),IC50 [1] [µM],IC50 [2] [µM],other results
CCN(c1cccc(C(=O)NCC(O)CN2CCc3ccccc3C2)c1)C1CCOCC1 (stereo not shown) [Compound B47.],0.101 to 1,–,–
O=C(NCC(O)CN1CCc2ccccc2C1)c1cccc(OC2CCOCC2)c1 (stereo not shown) [Compound B48.],0.101 to 1,–,–
CN(c1cccc(C(=O)NCC(O)CN2CCc3ccccc3C2)c1)C1CCOCC1 (stereo not shown) [Compound B49.],0.101 to 1,–,–
O=C(NCC(O)CN1CCc2ccccc2C1)c1cccc(NC2COC2)c1 (stereo not shown) [Compound B50.],0.101 to 1,–,–
O=C(NCC(O)CN1CCc2ccccc2C1)c1cccc(CN2CCOCC2)c1 (stereo not shown) [Compound B51.],0.101 to 1,–,–
CC(Nc1cccc(C(=O)NCC(O)CN2CCc3ccccc3C2)c1)C1CCOCC1 (stereo not shown) [Compound B52.],0.101 to 1,–,–
CC1(C)CC(Nc2cccc(C(=O)NCC(O)CN3CCc4ccccc4C3)c2)CCO1 (stereo not shown) [Compound B53.],0.101 to 1,–,–
O=C(NCC(O)CN1CCc2ccccc2C1)c1cncc(NC2CCOCC2)c1 (stereo not shown) [Compound B54.],< 0.1,–,–
O=C(NCC(O)CN1CCc2ccccc2C1)c1cc(NC2CCOCC2)ccn1 (stereo not shown) [Compound B55.],< 0.1,–,–
COc1cc(NC2CCOCC2)cc(C(=O)NCC(O)CN2CCc3ccccc3C2)c1 (stereo not shown) [Compound B56.],0.101 to 1,–,–
O=C(NCC(O)CN1CCc2ccccc2C1)c1cc(NC2CCOCC2)ccc1F (stereo not shown) [Compound B57.],0.101 to 1,–,–
O=C(NCC(O)CN1CCc2ccccc2C1)c1ccc(OC2CCOCC2)cc1 (stereo not shown) [Compound B58.],< 0.1,–,–
OC(COC1CCCN(c2ccccc2)C1)CN1CCc2ccccc2C1 (stereo not shown) [Compound D2],–,–,IC50 (Table D-2): 1 to 10 µM
OC(COc1ccc(OCC(O)CN2CCc3ccccc3C2)cc1)CN1CCc2ccccc2C1 (stereo not shown) [Compound D3],–,–,IC50 (Table D-2): 0.101 to 1 µM
OC(COc1cccc(CNC2CCCCC2)c1)CN1CCc2ccccc2C1 (stereo not shown) [Compound D4],–,–,IC50 (Table D-2): 0.101 to 1 µM
OC(COc1cccc(CNC2CCOCC2)c1)CN1CCc2ccccc2C1 (stereo not shown) [Compound D5],–,–,IC50 (Table D-2): 0.101 to 1 µM
OC(COc1cccc(CNc2cc[nH]n2)c1)CN1CCc2ccccc2C1 (stereo not shown) [Compound D6],–,–,IC50 (Table D-2): 0.101 to 1 µM
OC(COc1ccccc1N1CCNCC1)CN1CCc2ccccc2C1 (stereo not shown) [Compound D7],–,–,IC50 (Table D-2): 10 to 40 µM

# Continued, in another order:
IC50 [1] [µM],IC50 [2] [µM],Structure (SMILES),other results
–,0.101 to 1,O=C1Cc2ccccc2N1CC(O)CN1CCc2ccccc2C1 (stereo not shown) [Compound C1],–
–,10 to 50,O=c1cccc(CC(O)CN2CCc3ccccc3C2)[nH]1 (stereo not shown) [Compound C2],–
–,10 to 50,Cc1cccc(N2CCN(CC(O)CN3CCc4ccccc4C3)C(=O)C2)c1 (stereo not shown) [Compound C3],–
–,< 0.1,O=C1CN(c2cccc3cccnc23)CCN1CC(O)CN1CCc2ccccc2C1 (stereo not shown) [Compound C4],–
–,< 0.1,O=C1CN(c2cccc(Cl)c2)CCN1CC(O)CN1CCc2ccccc2C1 (stereo not shown) [Compound C5],–
–,< 0.1,O=C1CN(c2cccc(F)c2)CCN1CC(O)CN1CCc2ccccc2C1 (stereo not shown) [Compound C6],–
–,< 0.1,O=C1CN(c2ccc(Cl)cc2)CCN1CC(O)CN1CCc2ccccc2C1 (stereo not shown) [Compound C7],–
–,< 0.1,O=C1CN(c2cncc(N3CCOCC3)c2)CCN1CC(O)CN1CCc2ccccc2C1 (stereo not shown) [Compound C8],–
–,0.101 to 1,O=C1CN(c2ccccc2Cl)CCN1CC(O)CN1CCc2ccccc2C1 (stereo not shown) [Compound C9],–
–,< 0.1,O=C1CN(c2cccc(N3CCOCC3)c2)CCN1CC(O)CN1CCc2ccccc2C1 (stereo not shown) [Compound C12],–
–,0.101 to 1,Cc1ccc(N2CCN(CC(O)CN3CCc4ccccc4C3)C(=O)C2)cc1 (stereo not shown) [Compound C15],–
–,1 to 10,O=C1CC(c2ccccc2)CCN1C[C@H](O)CN1CCc2ccccc2C1 (stereo partly shown) [Compound C16],–
–,1 to 10,O=C1CC(c2ccccc2)CCN1C[C@@H](O)CN1CCc2ccccc2C1 (stereo partly shown) [Compound C17],–
–,1 to 10,O=c1cc(Nc2ccccc2)ccn1C[C@H](O)CN1CCc2ccccc2C1 [Compound C18],–
–,0.101 to 1,O=c1cc(Nc2ccccc2)ccn1C[C@H](O)CN1CCc2ccccc2C1 [Compound C19],–
–,0.101 to 1,O=C1CN(c2ccc(CO)cc2)CCN1CC(O)CN1CCc2ccccc2C1 (stereo not shown) [Compound C20],–
–,1 to 10,CC(=O)N1CCN(CC(O)CN2CCc3ccccc3C2)C(=O)C1 (stereo not shown) [Compound C21],–
–,1 to 10,CS(=O)(=O)N1CCN(CC(O)CN2CCc3ccccc3C2)C(=O)C1 (stereo not shown) [Compound C22],–
–,1 to 10,O=C1CN(C2CCOCC2)CCN1CC(O)CN1CCc2ccccc2C1 (stereo not shown) [Compound C23],–
–,1 to 10,O=C1CN(Cc2ccccc2)CCN1CC(O)CN1CCc2ccccc2C1 (stereo not shown) [Compound C24],–
–,1 to 10,O=C1CN(Cc2ccccn2)CCN1CC(O)CN1CCc2ccccc2C1 (stereo not shown) [Compound C25],–
–,1 to 10,O=C1CN(Cc2cccnc2)CCN1CC(O)CN1CCc2ccccc2C1 (stereo not shown) [Compound C26],–
–,> 50,CN1CCN(CC(O)CN2CCc3ccccc3C2)C(=O)C1 (stereo not shown) [Compound C27],–
–,1 to 10,O=C1COCCN1CC(O)CN1CCc2ccccc2C1 (stereo not shown) [Compound C28],–
–,0.101 to 1,CN(C)c1ccccc1N1CCN(C[C@H](O)CN2CCc3ccccc3C2)C(=O)C1 [Compound C29],–
–,1 to 10,CN(C)c1ccc(N2CCN(C[C@H](O)CN3CCc4ccccc4C3)C(=O)C2)cc1 [Compound C30],–
–,0.101 to 1,O=C1COc2ccccc2N1CC(O)CN1CCc2ccccc2C1 (stereo not shown) [Compound C31],–
–,> 10,O=C(NC1CCOCC1)C1CC(=O)N(CC(O)CN2CCc3ccccc3C2)C1 (stereo not shown) [Compound C32],–

# From patent publication US20150344457A1, “METHODS OF INHIBITING PRMT5” (EPIZYME, INC., priority 2012, published 2015)
